Source: article PMC6326779 (Science (New York, N.Y.), 2018)

How the values were obtained:
[1] = system: endogenous, full-length WIZ; details: WSU-DLCL2 and TMD8 cells; cited from earlier work
[2] = molecular target: CRBN-pomalidomide (Alexa488DDB1ΔB-CRBN-pomalidomide-biotinIKZF1 ZF1-2-3) (Homo sapiens, UniProt Q96SW2)
[3] = system: human C2H2 ZF library in HEK293T cells; test: C2H2 zinc finger library screen; format: cell-based; details: FDR <0.01, 5,611 ZFs assayed, 1 μM, 20 hours
IKZF2 ZF2 = IKZF2 ZF2 (Homo sapiens, UniProt Q96SW2+Q9UKS7); test: Degradation reporter analysis of IKZF2 ZF2; format: cell-based
Sequence of IKZF2 ZF2 (Q9UKS7 140-162 limits assumed): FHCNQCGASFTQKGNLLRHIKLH
Sequence of IKZF2 ZF2 (Q96SW2 whole entry): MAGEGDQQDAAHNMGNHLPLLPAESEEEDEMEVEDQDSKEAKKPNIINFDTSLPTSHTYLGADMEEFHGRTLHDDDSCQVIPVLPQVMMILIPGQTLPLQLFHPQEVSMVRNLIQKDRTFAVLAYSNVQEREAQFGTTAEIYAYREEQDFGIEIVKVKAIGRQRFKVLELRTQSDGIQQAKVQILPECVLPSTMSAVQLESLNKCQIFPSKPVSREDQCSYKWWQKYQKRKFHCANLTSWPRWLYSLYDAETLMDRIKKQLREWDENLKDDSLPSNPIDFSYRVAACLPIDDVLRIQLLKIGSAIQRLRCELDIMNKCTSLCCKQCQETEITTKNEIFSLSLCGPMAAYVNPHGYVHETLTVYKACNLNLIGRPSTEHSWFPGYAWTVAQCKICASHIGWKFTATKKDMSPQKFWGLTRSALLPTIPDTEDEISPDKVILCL
Sequence of IKZF2 ZF2 (Q16531 2-1140 partner limits assumed): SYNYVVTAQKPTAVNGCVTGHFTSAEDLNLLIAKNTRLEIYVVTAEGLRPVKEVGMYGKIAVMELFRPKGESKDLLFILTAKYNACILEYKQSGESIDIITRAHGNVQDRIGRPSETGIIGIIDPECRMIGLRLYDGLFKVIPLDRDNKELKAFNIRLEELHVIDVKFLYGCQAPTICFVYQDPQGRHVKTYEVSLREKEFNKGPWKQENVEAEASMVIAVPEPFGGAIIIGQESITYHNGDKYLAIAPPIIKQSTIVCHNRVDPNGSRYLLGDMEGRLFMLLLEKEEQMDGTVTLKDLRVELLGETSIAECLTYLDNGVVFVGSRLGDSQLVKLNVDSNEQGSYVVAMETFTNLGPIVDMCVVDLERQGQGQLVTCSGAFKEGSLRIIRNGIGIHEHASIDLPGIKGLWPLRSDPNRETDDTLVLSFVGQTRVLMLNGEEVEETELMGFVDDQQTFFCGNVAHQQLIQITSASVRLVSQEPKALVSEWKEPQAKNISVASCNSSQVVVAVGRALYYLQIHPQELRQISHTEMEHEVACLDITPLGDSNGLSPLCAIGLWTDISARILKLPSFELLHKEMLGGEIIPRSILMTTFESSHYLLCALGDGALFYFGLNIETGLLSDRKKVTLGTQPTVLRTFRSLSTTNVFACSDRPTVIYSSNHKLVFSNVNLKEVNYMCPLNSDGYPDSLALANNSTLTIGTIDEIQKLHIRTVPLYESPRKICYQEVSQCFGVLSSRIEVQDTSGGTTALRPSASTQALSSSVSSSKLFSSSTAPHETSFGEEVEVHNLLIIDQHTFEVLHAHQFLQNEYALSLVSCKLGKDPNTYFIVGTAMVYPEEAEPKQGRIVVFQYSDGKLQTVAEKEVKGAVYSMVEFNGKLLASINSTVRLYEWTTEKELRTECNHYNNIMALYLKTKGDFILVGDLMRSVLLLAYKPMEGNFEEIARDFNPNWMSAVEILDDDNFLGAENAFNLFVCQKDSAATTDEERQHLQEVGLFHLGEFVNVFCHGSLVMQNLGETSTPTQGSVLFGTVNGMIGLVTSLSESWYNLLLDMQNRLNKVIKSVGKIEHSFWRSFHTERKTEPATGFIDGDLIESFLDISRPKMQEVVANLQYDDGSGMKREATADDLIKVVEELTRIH

[4] = system: ZFs that bound CRBN-pomalidomide in the biochemical assay; format: cell-based, human; details: WIZ ZF7, cells
[5] = molecular target: human C2H2 ZF library in HEK293T cells (Homo sapiens, UniProt Q9UKS7); test: C2H2 zinc finger library screen; format: cell-based; details: 1 μM, 20 hours
Sequence of human C2H2 ZF library in HEK293T cells (Homo sapiens, UniProt Q9UKS7) (Q96SW2 whole entry partner): as the sequence (Q96SW2 whole entry) above

Sequence of CRBN-pomalidomide (Alexa488DDB1ΔB-CRBN-pomalidomide-biotinIKZF1 ZF1-2-3) (Q96SW2 whole entry, stated change not applied): as the sequence (Q96SW2 whole entry) above

Row | degradation of IKZF2 ZF2 (in words) (IKZF2 ZF2) | degradation of IKZF2 ZF2 in the C2H2 ZF library screen [5] | degradation of the IKZF2 ZF2 reporter (IKZF2 ZF2; validation experiments) | Compound | degradation of endogenous, full-length WIZ [1] | factor of decrease in binding affinity, ZF2-ZF1 versus ZF2-ZF3 [2] | number of C2H2 ZFs depleted [3] | degradation of WIZ ZF7 in the degradation reporter [4]
1 |  |  |  | Nc1cccc2c1CN(C1CCC(=O)NC1=O)C2=O (stereo not shown) [lenalidomide] | confirmed degradation |  |  | 
2 | efficiently degraded | selectively degraded | more than 40% | O=C1CC[C@H](N2Cc3c(OCc4ccc(CN5CCOCC5)cc4)cccc3C2=O)C(=O)N1 [CC-220] |  |  |  | 
3 | not degraded |  |  | Cc1nc2cccc(N)c2c(=O)n1C1CCC(=O)NC1=O (stereo not shown) [CC-122] | confirmed degradation |  |  | 

Row | Compound | degradation of IKZF2 ZF2 (in words) (IKZF2 ZF2) | degradation of IKZF2 ZF2 in the C2H2 ZF library screen [5] | degradation of the IKZF2 ZF2 reporter (IKZF2 ZF2; validation experiments) | degradation of endogenous, full-length WIZ [1] | factor of decrease in binding affinity, ZF2-ZF1 versus ZF2-ZF3 [2] | number of C2H2 ZFs depleted [3] | degradation of WIZ ZF7 in the degradation reporter [4]
4 | Nc1cccc2c1C(=O)N(C1CCC(=O)NC1=O)C2=O (stereo not shown) [pomalidomide] | not degraded |  |  |  | 6 | 11 | partial degradation
